target: T1, βCat-BCL9 (beta-Catenin/BCL9-BCL9L interaction) (Homo sapiens, UniProt P35222); assay: ELISA based protein-protein interaction assay, βCat-BCL9; assay type: binding; conditions: Example 1
T1 sequence (P35222 1-781): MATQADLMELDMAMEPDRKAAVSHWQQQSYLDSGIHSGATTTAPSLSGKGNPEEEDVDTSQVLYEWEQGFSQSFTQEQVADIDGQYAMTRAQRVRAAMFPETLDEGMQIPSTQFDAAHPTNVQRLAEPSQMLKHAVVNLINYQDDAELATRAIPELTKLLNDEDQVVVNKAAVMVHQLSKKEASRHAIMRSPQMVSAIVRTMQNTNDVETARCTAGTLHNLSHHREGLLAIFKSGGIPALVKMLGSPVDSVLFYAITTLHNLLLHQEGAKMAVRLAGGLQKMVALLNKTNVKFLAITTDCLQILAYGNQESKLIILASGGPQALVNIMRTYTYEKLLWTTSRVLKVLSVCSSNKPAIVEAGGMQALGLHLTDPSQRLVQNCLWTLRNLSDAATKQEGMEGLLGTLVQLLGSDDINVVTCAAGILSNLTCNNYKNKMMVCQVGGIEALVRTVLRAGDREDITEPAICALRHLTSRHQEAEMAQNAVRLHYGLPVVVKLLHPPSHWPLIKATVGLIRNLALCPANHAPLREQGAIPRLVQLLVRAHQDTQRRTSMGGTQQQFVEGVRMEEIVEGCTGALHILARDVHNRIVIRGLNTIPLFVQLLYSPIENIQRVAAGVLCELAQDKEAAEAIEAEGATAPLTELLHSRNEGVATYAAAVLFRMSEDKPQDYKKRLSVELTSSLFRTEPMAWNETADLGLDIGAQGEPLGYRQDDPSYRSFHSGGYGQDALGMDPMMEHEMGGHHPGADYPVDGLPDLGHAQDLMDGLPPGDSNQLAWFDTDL
Excerpt: (§1) cDNAs including the binding domains of Lgs and beta-Catenin were fused down-stream of glutathione-S-transferase (GST) cDNA in pGEX-4T inducible bacterial expression vector (Pharmacia). Similar recombinant DNA constructs were generated in the pET-32a(+) vector (Novagen) for expression of fusion protein containing the Thioredoxine-6His tag at their N-terminus. Fusion proteins were produced in BL21 bacteria (e.g. Stratagene) following manufacturer's recommendation.
(§2) To isolate the produced fusions protein, bacteria were ground in aluminum oxide (Sigma, A2039) and the resulting powder extracted in lysis buffer (140 mM NaCl, 10 mM Na2HPO4, 1.8 mM KH2PO4, 2.7 mM KCl, 1 mM EDTA, 1% Triton-X-100, 1 mM DTT and protease inhibitors) under rotation for 30 minutes. Supernatants were cleared by centrifugation then filtered on a 0.45 μm membrane before protein purification. For GST tagged protein, lysate were processed on glutathione agarose beads following manufacturer's recommendation (Amersham Pharmacia) and purified proteins eluted in 50 mM Tris-Cl, 10 mM reduced glutathione pH8.0. For thioredoxine-6His fusions, tagged proteins were purified from the lysate on a nickel chelating column (e.g. Hitrap chelating, G.E. Healthcare) using an HPLC system (e.g. Akta Prime, G.E. Healthcare) and eluted under increasing concentration of imidazole. The purified proteins solution was dialyzed against PBS before use. The quality of the preparations was checked by SDS-gel electrophoresis by standard methods well known by persons skilled in the art.
(§3) Compound preparation: Compounds can be prepared as 25 mM stock in DMSO and diluted in DMSO to reach final test concentrations of up to 100 μM. Final DMSO concentration in the assay is 5%.
(§4) 100 μl of GST fusion protein (e.g. GST-βCatenin) diluted to the appropriate concentration in phosphate buffer saline are added per well to a 96 well plate with high protein binding capacity (e.g. Nunc Maxisorp) and placed at 4° C. overnight. The following day the liquid in the wells is discarded and 150 μl 3% bovine serum albumin (BSA) in PBS are added to each well and incubated at room temperature for 2 hours under moderate shaking. This solution is then discarded and each well washed twice with 200 μl PBS. After carefully discarding the second wash, a mixture of 5 μl compound dilution and 95 μl 6His fusion protein (e.g. 6His-Bcl9) diluted to the appropriate concentration in PBS is added to each well. The plate is then incubated for 1 hour at room temperature under moderate shaking. This protein solution is then discarded and the wells washed 3 times with 200 μl 0.1% Tween-20 solution in PBS. After carefully discarding the final wash, 100 μl of anti 6His antibody conjugated to the horse-radish peroxidase (e.g. Roche antibody 11965085001) at the appropriate dilution in 1% BSA in PBS is added to the wells and the plate incubated for 1 hour at room temperature under moderate shaking. This solution is then discarded and the wells washed 3 times with 200 μl 0.1% Tween-20 solution in PBS. After carefully discarding the final wash, 100 μl of HRP substrate […] (TMB) in solution (e.g. Sigma T0440) is added to the wells and the plate incubated up to 30 minutes in the dark at room temperature. The reaction is stopped by addition of 100 μl of 2N HCl to each well and the optical density is measured at 450 nm and 630 nm.

SMILES	IC50 [µM]
COc1cccc(NC(=O)c2ccc(C(=O)Nc3cccc(OC)c3)nc2)c1 [TGC0011280]	> 100
COc1ccc(CCNC(=O)c2ccc(C(=O)NCCc3ccc(OC)c(OC)c3)nc2)cc1OC [TGC0011342]	> 50
Cc1nnc(NC(=O)c2ccc(C(=O)Nc3nnc(C)s3)nc2)s1 [TGC0011344]	86
O=C(NCc1ccco1)c1ccc(C(=O)NCc2ccco2)nc1 [TGC0011428]	> 50
O=C(NCc1ccc2c(c1)OCO2)c1ccc(C(=O)NCc2ccc3c(c2)OCO3)nc1 [TGC0011430]	> 50
COc1cccc(C(=O)Nc2ccc(-c3cnc(-c4ccc(NC(=O)c5cccc(OC)c5)cc4)nc3)cc2)c1 [TGC0011528]	> 50
CCCC(=O)Nc1ccc(-c2cnc(-c3ccc(NC(=O)CCC)cc3)nc2)cc1 [TGC0011566]	68
COC(=O)c1ccc(NC(=O)c2ccc(C(=O)Nc3ccc(C(=O)OC)cc3Cl)nc2)c(Cl)c1 [TGC0011605]	> 50
O=C(O)c1cccc(NC(=O)c2ccc(C(=O)Nc3cccc(C(=O)O)c3)cc2)c1 [TGC0012297]	> 100
N#Cc1ccccc1NC(=O)c1ccc(C(=O)Nc2ccccc2C#N)cc1 [TGC0012300]	> 10
N#Cc1cccc(NC(=O)c2ccc(C(=O)Nc3cccc(C#N)c3)cc2)c1 [TGC0012301]	> 50
COC(=O)c1ccc(NC(=O)c2cc(OC)c(C(=O)Nc3ccc(C(=O)OC)cc3)cc2OC)cc1 [TGC0012302]	94

Second part, the compound after the results:

IC50 [µM]	SMILES
38	COC(=O)c1cc(NC(=O)c2ccc(C(=O)Nc3cc(C(=O)OC)cc(C(=O)OC)c3)nc2)cc(C(=O)OC)c1 [TGC0000160]
6	CC(=O)c1ccc(NC(=O)c2ccc(C(=O)Nc3ccc(C(C)=O)cc3)nc2)cc1 [TGC0011285]
2	COC(=O)c1ccc(NC(=O)c2ccc(C(=O)Nc3ccc(C(=O)OC)cc3)nc2)cc1 [TGC0011288]
29	O=C(Nc1cccnc1)c1ccc(C(=O)Nc2cccnc2)nc1 [TGC0011423]
3	O=C(Nc1ccc2oc(=O)ccc2c1)c1ccc(C(=O)Nc2ccc3oc(=O)ccc3c2)cc1 [TGC0012296]
5	N#Cc1ccc(NC(=O)c2ccc(C(=O)Nc3ccc(C#N)cc3)cc2)cc1 [TGC0012303]
7	COc1cc(NC(=O)c2ccc(C(=O)Nc3ccc(OC)c(OC)c3)nc2)cc(OC)c1 [TGC0012408]
5	COc1ccc(NC(=O)c2ccc(C(=O)Nc3ccc(NC(C)=O)cc3)cn2)cc1 [TGC0012409]

target: T2, βCat-TCF4 (Tcf-4-βCatenin interaction) (Homo sapiens, UniProt P35222); assay: ELISA based protein-protein interaction assay, βCat-TCF4; assay type: binding; conditions: Example 1
T2 sequence (P35222 141-664 limits assumed): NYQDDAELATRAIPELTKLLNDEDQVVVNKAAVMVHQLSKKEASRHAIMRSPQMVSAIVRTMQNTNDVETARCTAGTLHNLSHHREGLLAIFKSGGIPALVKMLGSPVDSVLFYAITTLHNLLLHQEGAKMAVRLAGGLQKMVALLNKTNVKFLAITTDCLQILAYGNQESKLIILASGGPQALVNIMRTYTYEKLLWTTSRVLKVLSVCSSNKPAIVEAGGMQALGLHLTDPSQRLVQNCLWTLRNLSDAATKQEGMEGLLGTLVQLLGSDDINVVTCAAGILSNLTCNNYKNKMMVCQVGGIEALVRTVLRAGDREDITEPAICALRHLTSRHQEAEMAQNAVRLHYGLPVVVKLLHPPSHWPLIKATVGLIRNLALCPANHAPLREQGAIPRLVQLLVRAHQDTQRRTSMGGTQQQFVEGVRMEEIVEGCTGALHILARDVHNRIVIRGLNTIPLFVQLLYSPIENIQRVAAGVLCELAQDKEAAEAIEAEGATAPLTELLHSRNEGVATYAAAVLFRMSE
Excerpt: as §1, §2, §3, §4

SMILES	IC50 [µM]
COc1cccc(NC(=O)c2ccc(C(=O)Nc3cccc(OC)c3)nc2)c1 [TGC0011280]	23
COc1ccc(CCNC(=O)c2ccc(C(=O)NCCc3ccc(OC)c(OC)c3)nc2)cc1OC [TGC0011342]	> 50
Cc1nnc(NC(=O)c2ccc(C(=O)Nc3nnc(C)s3)nc2)s1 [TGC0011344]	119
O=C(NCc1ccco1)c1ccc(C(=O)NCc2ccco2)nc1 [TGC0011428]	> 50
O=C(NCc1ccc2c(c1)OCO2)c1ccc(C(=O)NCc2ccc3c(c2)OCO3)nc1 [TGC0011430]	> 50
COc1cccc(C(=O)Nc2ccc(-c3cnc(-c4ccc(NC(=O)c5cccc(OC)c5)cc4)nc3)cc2)c1 [TGC0011528]	> 50
CCCC(=O)Nc1ccc(-c2cnc(-c3ccc(NC(=O)CCC)cc3)nc2)cc1 [TGC0011566]	> 100
COC(=O)c1ccc(NC(=O)c2ccc(C(=O)Nc3ccc(C(=O)OC)cc3Cl)nc2)c(Cl)c1 [TGC0011605]	22
COC(=O)c1ccc(NC(=O)c2cc(OC)c(C(=O)Nc3ccc(C(=O)OC)cc3)cc2OC)cc1 [TGC0012302]	> 100

Now from value to compound:

IC50 [µM]	SMILES
> 100	COC(=O)c1cc(NC(=O)c2ccc(C(=O)Nc3cc(C(=O)OC)cc(C(=O)OC)c3)nc2)cc(C(=O)OC)c1 [TGC0000160]
> 10	CC(=O)c1ccc(NC(=O)c2ccc(C(=O)Nc3ccc(C(C)=O)cc3)nc2)cc1 [TGC0011285]
> 10	COC(=O)c1ccc(NC(=O)c2ccc(C(=O)Nc3ccc(C(=O)OC)cc3)nc2)cc1 [TGC0011288]
> 100	O=C(Nc1cccnc1)c1ccc(C(=O)Nc2cccnc2)nc1 [TGC0011423]
> 10	O=C(Nc1ccc2oc(=O)ccc2c1)c1ccc(C(=O)Nc2ccc3oc(=O)ccc3c2)cc1 [TGC0012296]
> 10	N#Cc1ccc(NC(=O)c2ccc(C(=O)Nc3ccc(C#N)cc3)cc2)cc1 [TGC0012303]

target: T3, βCat-ECad (E-Cadherin-βCatenin interaction) (Homo sapiens, UniProt P35222); assay: ELISA based protein-protein interaction assay, βCat-ECad; assay type: binding; conditions: Example 1
T3 sequence (P35222 134-671 limits assumed): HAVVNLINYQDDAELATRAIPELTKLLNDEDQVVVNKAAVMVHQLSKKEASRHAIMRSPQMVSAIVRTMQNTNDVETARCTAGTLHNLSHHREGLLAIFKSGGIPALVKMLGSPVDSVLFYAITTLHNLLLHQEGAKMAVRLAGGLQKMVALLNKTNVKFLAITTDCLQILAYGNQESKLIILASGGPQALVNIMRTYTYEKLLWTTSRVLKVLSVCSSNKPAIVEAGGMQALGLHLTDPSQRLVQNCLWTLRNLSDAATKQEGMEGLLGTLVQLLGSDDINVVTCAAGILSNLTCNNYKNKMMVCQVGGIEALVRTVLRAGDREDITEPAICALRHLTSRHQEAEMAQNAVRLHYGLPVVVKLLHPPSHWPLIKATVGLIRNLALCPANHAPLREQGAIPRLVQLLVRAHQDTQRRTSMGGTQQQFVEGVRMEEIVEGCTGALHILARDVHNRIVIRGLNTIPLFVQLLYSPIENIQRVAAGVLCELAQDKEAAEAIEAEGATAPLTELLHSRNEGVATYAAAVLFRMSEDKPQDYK
Excerpt: as §1, §2, §3, §4

SMILES	IC50 [µM]
COc1cccc(NC(=O)c2ccc(C(=O)Nc3cccc(OC)c3)nc2)c1 [TGC0011280]	21
COc1ccc(CCNC(=O)c2ccc(C(=O)NCCc3ccc(OC)c(OC)c3)nc2)cc1OC [TGC0011342]	> 50
Cc1nnc(NC(=O)c2ccc(C(=O)Nc3nnc(C)s3)nc2)s1 [TGC0011344]	41.4
O=C(NCc1ccco1)c1ccc(C(=O)NCc2ccco2)nc1 [TGC0011428]	> 50
O=C(NCc1ccc2c(c1)OCO2)c1ccc(C(=O)NCc2ccc3c(c2)OCO3)nc1 [TGC0011430]	> 50
COc1cccc(C(=O)Nc2ccc(-c3cnc(-c4ccc(NC(=O)c5cccc(OC)c5)cc4)nc3)cc2)c1 [TGC0011528]	> 50
CCCC(=O)Nc1ccc(-c2cnc(-c3ccc(NC(=O)CCC)cc3)nc2)cc1 [TGC0011566]	> 100
COC(=O)c1ccc(NC(=O)c2ccc(C(=O)Nc3ccc(C(=O)OC)cc3Cl)nc2)c(Cl)c1 [TGC0011605]	21
COC(=O)c1ccc(NC(=O)c2cc(OC)c(C(=O)Nc3ccc(C(=O)OC)cc3)cc2OC)cc1 [TGC0012302]	> 100

Continued, values first:

IC50 [µM]	SMILES
> 10	CC(=O)c1ccc(NC(=O)c2ccc(C(=O)Nc3ccc(C(C)=O)cc3)nc2)cc1 [TGC0011285]
> 10	COC(=O)c1ccc(NC(=O)c2ccc(C(=O)Nc3ccc(C(=O)OC)cc3)nc2)cc1 [TGC0011288]
> 100	O=C(Nc1cccnc1)c1ccc(C(=O)Nc2cccnc2)nc1 [TGC0011423]
> 10	O=C(Nc1ccc2oc(=O)ccc2c1)c1ccc(C(=O)Nc2ccc3oc(=O)ccc3c2)cc1 [TGC0012296]
> 10	N#Cc1ccc(NC(=O)c2ccc(C(=O)Nc3ccc(C#N)cc3)cc2)cc1 [TGC0012303]
